The source of these data is US20080242726A1 (priority 2004, published 2008).

Data set [1] deals with serum cholesterol. In words: Effects on cholesterol levels in male baboons. Format: in vivo. The settings on record: 1.5 mg/kg for 12 days. An excerpt: (§1) The samples analyzed were sera taken on the day of first treatment before being given test article (day 0), after 12 days of treatment (day 12) and 7 days after the last treatment (end or wash-out).
Data set [2] deals with total serum testosterone. Put plainly: Effects of Clomids on serum testosterone in male baboons. Format: in vivo. The settings on record: 1.5 mg/kg for 12 days.
From the text: as §1

Data set [3] deals with total testosterone. Put plainly: Comparison of Androxal to Androgel in hypogonadal men: total testosterone. The settings on record: two weeks. The class given is in vivo. As for the experimental part: (§2) A placebo controlled challenge study was conducted at the Advanced Biological Research, Inc. (ABR) Clinical Research Center in Hackensack, N.J. to compare orally administered Androxal™ (trans-clomiphene) to Androgel® (testosterone) in hypogonadal men. Androgel® (Solvay Pharmaceuticals, Inc.) consists of a cream that administers exogenous testosterone in a transdermal matrix.
(§3) The study enrolled 62 hypogonadal men with testosterone levels less than 300 ng/dl (normal 298-1034 ng/dl) that were randomized into 6 different arms, three doses of Androxal™ (12.5 mg, 25 mg, and 50 mg), placebo, and both high and low doses of Androgel®. Half of the men in each of the Androxal™ and placebo arms were randomized into cohorts that underwent in-clinic sessions on days 1 and 14 to determine pharmacokinetic parameters for Androxal™ as well as cyclical changes in testosterone. The placebo and Androxal™ doses were administered in a double blind fashion. The Androgel® cream was administered in an open label fashion. Half of the Androgel® patients underwent in-clinic sessions similar to the other patients in the study. Following the two week drug exposure patients were followed for an additional seven to ten days to determine the status of their testosterone levels.

Data set [4] concerns serum prolactin (PRL). Put plainly: Effects on serum prolactin (PRL) in male baboons. The class given is in vivo. The settings on record: 1.5 mg/kg for 12 days.
From the text: as §1

Data set [5] in a line: Comparison of Androxal to Androgel in hypogonadal men: side effects. The class given is in vivo. The settings on record: two week exposure, compared with placebo. The protocol:
as §2, §3

From the text in data set [6]: as §1

For `CCN(CC)CCOc1ccc(C(=C(Cl)c2ccccc2)c2ccccc2)cc1` [Clomid, clomiphene], in data set [1], the “trend of serum cholesterol” value is given as “slight increase”. Moreover, the “effect on total serum testosterone” value in data set [2] is given as “more variable total testosterone levels”.
As for `CCN(CC)CCOc1ccc(/C(=C(\Cl)c2ccccc2)c2ccccc2)cc1` [Enclomid, trans-clomiphene], the “mean increase of testosterone from baseline” value in data set [3] (high dose 50 mg oral) was 294 ng/dL; in data set [3] (low dose 12.5 mg oral), 169 ng/dL; in data set [3] (mid dose 25 mg oral) it was 247 ng/dL. Further, the “serum prolactin (PRL) during the study” value in data set [4] was “decrease”. In addition, the “trend of serum cholesterol” value in data set [1] is “tended to decrease”. Moreover, in data set [5], the side effects result is on record as “no side effects”. Moreover, the “effect on total serum testosterone” value in data set [2] is on record as “significant increases”. For the same molecule, the effect on platelets result in data set [6] (12-day treatment) was “clear effect”. In data set [6] (male baboons), the counts of eosinophiles result is “raising the counts”.
Take `CCN(CC)CCOc1ccc(/C(=C(/Cl)c2ccccc2)c2ccccc2)cc1` [Zuclomid, cis-clomiphene]: the “trend of serum cholesterol” value in data set [1] is on record as “tended to increase”. Also, the “effect on total serum testosterone” value in data set [2] is recorded as “did not raise total serum testosterone to any extent”.
